Assays:
[1] = target: T1, endogenously expressed FOXC2 (Homo sapiens, UniProt Q99958); assay: Drug affinity responsive target stability (DARTS) assay with MDA-MB-231 cell lysate; type: binding; details: 20 μM, Western blot
T1 construct: endogenous in cells; host or cells: MDA-MB-231
T1 sequence (Q99958 1-501): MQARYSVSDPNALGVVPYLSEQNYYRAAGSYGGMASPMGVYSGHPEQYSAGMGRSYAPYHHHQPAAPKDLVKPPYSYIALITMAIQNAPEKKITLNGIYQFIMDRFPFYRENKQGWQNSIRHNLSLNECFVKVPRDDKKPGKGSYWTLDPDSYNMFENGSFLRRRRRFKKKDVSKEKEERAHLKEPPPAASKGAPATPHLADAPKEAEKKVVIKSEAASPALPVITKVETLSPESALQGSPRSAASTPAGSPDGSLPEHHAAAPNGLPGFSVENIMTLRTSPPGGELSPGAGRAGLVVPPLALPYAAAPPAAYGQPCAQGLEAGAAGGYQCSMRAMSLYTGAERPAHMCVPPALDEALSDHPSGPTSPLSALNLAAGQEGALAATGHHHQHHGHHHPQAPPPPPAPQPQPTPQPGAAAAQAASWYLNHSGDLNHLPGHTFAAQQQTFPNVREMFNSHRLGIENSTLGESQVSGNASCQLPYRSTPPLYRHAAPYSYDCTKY
Method: As recombinant FOXC2 was used for the screening and the binding affinity determination, it was important to examine if MC-1-F2 binds to endogenously expressed FOXC2. To this end, a drug affinity responsive target stability assay (DARTS) was performed for MC-1-F2 and MC-C with cell lysate of MDA-MB-231 cells (FIG. 2B). In DARTS, the binding of a small molecule to its cellular target increases protease resistance of the target protein (Pai et al., 2015).
MDA-MB-231 cell lysate was harvested and incubated with 600 μL of Triton X-100 lysis buffer (50 mM Tris-HCl, 150 mM NaCl, 1 mM EDTA, 1% Triton X-100, pH 8.0) with protease inhibitor and 150 μL of phosphate inhibitor was added. Then frozen overnight followed by addition of 66.7 μL of 10×TNC buffer (1 M Tris-HCl, 5 M NaCl, 1 M CaCl2, pH 8.0) and gently mixed. The lysate was further split into 2 test tubes: Tube (1) 300 μL, Tube (2) 300 μL of cell lysate. The samples were incubated in desired concentration of compounds for 1 hour at room temperature and gently mixed. Once done the lysate of each condition was further split into 5 test tubes for each pronase condition. Pronase stock solution was thawed prior to use and 2 μL of each concentration were added to each tube and allowed to incubate for 20-30 minutes, followed by the addition of SDS loading buffer to stop pronase digestion followed by Western blot analysis.

[2] = test system: MDA-MB-231 cells; assay: Transwell invasion assay, MDA-MB-231; type: cell-based; details: MDA-MB-231, 20 μM, 24 hours
Method: Reversal of EMT mediated by MC-1-F2 was anticipated to lead to the inhibition of metastatic capability of cancer cells. […] A wound healing assay was carried out to examine the migratory capabilities of cells in closing a “wound” or gap over a period of 24 hours. […] Inhibition of migratory capabilities of cells only measures one aspect of EMT progression. EMT is marked also by increased invasiveness of cancer cells. Therefore, the invasive property of MDA-MB-231 cells treated with MC-1-F2 was examined (FIGS. 6B&C).
Matrigel invasion chambers (Corning) were allowed to come to room temperature and allowed to rehydrate for 2 hours in a cell incubator. Cells were treated 24 hours prior to assay and starved in 2% FBS in DMEM for 2 hours prior to assay. A cell suspension containing 5×10^4 cells/mL was prepared. Chemoattractant (DMEM+10% FBS) was added to the bottom of the wells. Using forceps, the inserts were transferred inside the wells and 0.5 mL of cell suspension was immediately added. The chambers were incubated for 22 hours in a humidified tissue culture incubator. After the 22 hours, the non-invading cells were removed by scrubbing the surface of the membrane. […] The cells were stained with 0.5% crystal violet solution and several images of the wells were then taken and total number of cells counted for analysis.

[3] = test system: DU145 cells; assay: Western blot of EMT, CSC markers and AR in DU145; type: cell-based; details: DU145, 20 μM, 48 hours
Source text: Due to our interest in CRPC the cell lines DU145 and PC3 were chosen due to their chemoresistance to high concentrations of enzalutamide, androgen independence, and relatively high expression of FOXC2 (FIGS. 30A&B). First, the effect of MC-1-F2 on the inhibition of EMT markers was examined (FIGS. 26A-G). […] The variability in E-cadherin expression can be due to a different mode of action the ligand MC-1-F2 is having on prostate cancer cells, possibly a time dependent effect of the ligand.
After confirmation of the ligand's ability to block EMT, the ligand's ability to decrease cancer stem cell (CSC) characteristics was determined. CRPC is plagued by a higher ratio of CSC to normal prostate cells, leading to the acquired characteristics of higher proliferative and self-renewal capabilities (Yun et al., 2016). CSC markers, Nanog, C-myc and KLF4, were examined.
50 μg of total protein per sample was incubated with 4× loading buffer at 100° C. for 5 min. Protein samples were then loaded into a polyacrylamide gel and subjected to SDS-PAGE. Resolved proteins were then transferred by a wet transfer method to a PVDF membrane at 100 V for 1 hour using a BioRad Mini Trans-Blot Electrophoresis Transfer Cell. Upon the completion of wet transfer, the membrane was then blocked with 5% (w/v) fat-free milk in 1× Tris-buffered saline/0.1% (v/v) Tween-20 (TBS-T) for at least 1 hour. Then incubated with the respective primary antibodies diluted in 5% BSA in 1×TBST at 4° C. overnight. The following day exposed to 1:1000 dilution of anti-mouse […] secondary antibodies in 5% (w/v) fat-free milk in 1×TBS-T for 1 hour at room temperature. The probed proteins were then detected for chemiluminescent signal using SuperSignal Chemiluminescent Substrate (PIERCE). Pierce antibodies: B-actin, and all other antibodies used are from cell signaling.

[4] = test system: DU145 cells; assay: Transwell invasion assay, DU145; type: cell-based; details: DU145, 24 hours, vs DMSO
Method: (§1) Following determination of both inhibition of EMT and CSC properties, the inhibition of the migratory and invasive capabilities of both cell lines following MC-1-F2 treatment was examined through the use of a transwell invasion assay.
(§2) Matrigel invasion chambers (Corning) were allowed to come to room temperature and allowed to rehydrate for 2 hours in a cell incubator. Cells were treated 24 hours prior to assay and starved in 2% FBS in DMEM for 2 hours prior to assay. A cell suspension containing 5×10^4 cells/mL was prepared. Chemoattractant (DMEM+10% FBS) was added to the bottom of the wells. Using forceps, the inserts were transferred inside the wells and 0.5 mL of cell suspension was immediately added. The chambers were incubated for 22 hours in a humidified tissue culture incubator. After the 22 hours, the non-invading cells were removed by scrubbing the surface of the membrane. The cells were fixated with 4% formaldehyde solution for 2 minutes at room temperature. Followed by permeabilization of the membrane with 100% MeOH for 20 minutes at room temperature. The cells were stained with 0.5% crystal violet solution and several images of the wells were then taken and total number of cells counted for analysis.

[5] = test system: LNCaP cells; assay: Transwell invasion assay, LNCaP; type: cell-based; details: androgen-dependent, low FOXC2 expression, 20 μM, 24 hours
Method: as §1, §2

## N=C(N)NCCCCNc1nc(Nc2ccc(Oc3ccccc3)cc2)nc(N2CCN(c3nc(N)nc(Nc4ccc(N5CCOCC5)cc4)n3)CC2)n1 [MC-1-F2]
[1]
  protection of FOXC2 from pronase-mediated proteolysis (DARTS): protection of FOXC2 from pronase-mediated proteolysis
[1]; pronase
  proteolysis of β-actin (DARTS): did not affect the proteolysis β-actin
[2]
  invasive property (transwell invasion): decrease in the invasive property
[3]
  AR expression: no effect on AR expression
  CSC markers Nanog, C-myc and KLF4: significant decreases
  E-cadherin expression levels: recovery of E-cadherin
  EMT markers ZEB1, Vimentin, N-cadherin and Slug: inhibit various EMT markers
  epithelial marker ZO-1 expression: recovery of the epithelial marker ZO-1
[4]
  invasiveness (transwell invasion): remarkable inhibition in invasiveness
[5]
  number of invasive cells (transwell invasion): saw to change in the number of invasive cells

Source: patent US10814010B2, “FOXC2 inhibitor and methods of use thereof” (The Board of Regents of The University of Texas System, priority 2018, dated 2020)
